Results: ChEMBL document CHEMBL3885881, “DrugMatrix”

Organism: Rattus norvegicus
Assay: DrugMatrix - Regimen: Daily Repeat
Format: toxicity, organism-based, Sprague-Dawley
Design: regimen Daily Repeat, gender Male, age 6-8 weeks
Details: in vivo, po, route oral GAVAGE, vehicle 100 % WATER; for NUCLEATED RED BLOOD CELLS / PLATELET COUNT / ABSOLUTE BASOPHIL / ABSOLUTE EOSINOPHIL / ABSOLUTE LYMPHOCYTE / ABSOLUTE MONOCYTE / ABSOLUTE SEGMENTED NEUTROPHIL / BASOPHIL / EOSINOPHIL / ERYTHROCYTE COUNT / HEMATOCRIT / LEUKOCYTE COUNT / LYMPHOCYTE / MEAN CORPUSCULAR HEMOGLOBIN / MEAN CORPUSCULAR HEMOGLOBIN CONCENTRATION / MEAN CORPUSCULAR VOLUME / MONOCYTE / NEUTROPHIL: tissue Blood; for ALANINE AMINOTRANSFERASE / ALBUMIN / ALKALINE PHOSPHATASE / ASPARTATE AMINOTRANSFERASE / BLOOD UREA NITROGEN / CARBON DIOXIDE / CHLORIDE / CHOLESTEROL / CREATINE PHOSPHOKINASE / CREATININE / LIPASE / POTASSIUM / TOTAL BILIRUBIN / TOTAL PROTEIN: tissue Plasma
[1] = 44 mg/kg, 120 h, dose level Low, time 5 day
[2] = 600 mg/kg, 72 h, dose level M1, time 3 day
[3] = 600 mg/kg, 120 h, dose level M1, time 5 day
[4] = 1200 mg/kg, 72 h, dose level High, time 3 day

## NC(=O)c1ncn([C@@H]2O[C@H](CO)[C@@H](O)[C@H]2O)n1 [RIBAVIRIN]
[1]
  NUCLEATED RED BLOOD CELLS: 0 /100WBC
  PLATELET COUNT: 1248.67 x10E3/uL
  ALANINE AMINOTRANSFERASE: 43 u/L
  ALBUMIN: 4.37 G/DL
  ALKALINE PHOSPHATASE: 347 u/L
  ASPARTATE AMINOTRANSFERASE: 75.33 u/L
  BLOOD UREA NITROGEN: 13.67 mg/dL
  CARBON DIOXIDE: 26 mmol/L
  CHLORIDE: 102 MEQ/L
  CHOLESTEROL: 63 mg/dL
  CREATINE PHOSPHOKINASE: 230.67 u/L
  CREATININE: 0.16 mg/dL
  LIPASE: 8 u/L
  POTASSIUM: 6.69 MEQ/L
  TOTAL BILIRUBIN: 0.2 mg/dL
  TOTAL PROTEIN: 6 G/DL
[2]
  ABSOLUTE BASOPHIL: 0 CELLS/uL
  ABSOLUTE EOSINOPHIL: 216 CELLS/uL
  ABSOLUTE LYMPHOCYTE: 9535 CELLS/uL
  ABSOLUTE MONOCYTE: 0 CELLS/uL
  ABSOLUTE SEGMENTED NEUTROPHIL: 1715.67 CELLS/uL
  BASOPHIL: 0%
  EOSINOPHIL: 2%
  ERYTHROCYTE COUNT: 6.28 x10E6/uL
  HEMATOCRIT: 39.7%
  LEUKOCYTE COUNT: 11.47 x10E3/uL
  LYMPHOCYTE: 82.67%
  MEAN CORPUSCULAR HEMOGLOBIN: 23.53 pg
  MEAN CORPUSCULAR HEMOGLOBIN CONCENTRATION: 37.3 G/DL
  MEAN CORPUSCULAR VOLUME: 63.2 fL
  MONOCYTE: 0%
  NEUTROPHIL: 15.33%
  NUCLEATED RED BLOOD CELLS: 0 /100WBC
  PLATELET COUNT: 1269.33 x10E3/uL
  ALANINE AMINOTRANSFERASE: 185 u/L
  ALBUMIN: 3.7 G/DL
  ALKALINE PHOSPHATASE: 293.33 u/L
  ASPARTATE AMINOTRANSFERASE: 480 u/L
  BLOOD UREA NITROGEN: 16.33 mg/dL
  CARBON DIOXIDE: 16 mmol/L
  CHLORIDE: 104.33 MEQ/L
  CHOLESTEROL: 83 mg/dL
  CREATINE PHOSPHOKINASE: 1211.67 u/L
  CREATININE: 0.22 mg/dL
  LIPASE: 35 u/L
  POTASSIUM: 7.1 MEQ/L
  TOTAL BILIRUBIN: 0.2 mg/dL
  TOTAL PROTEIN: 5.33 G/DL
[3]
  ABSOLUTE BASOPHIL: 0 CELLS/uL
  ABSOLUTE EOSINOPHIL: 179.33 CELLS/uL
  ABSOLUTE LYMPHOCYTE: 10736 CELLS/uL
  ABSOLUTE MONOCYTE: 0 CELLS/uL
  ABSOLUTE SEGMENTED NEUTROPHIL: 2451.33 CELLS/uL
  BASOPHIL: 0%
  EOSINOPHIL: 1.33%
  ERYTHROCYTE COUNT: 6.48 x10E6/uL
  HEMATOCRIT: 40.57%
  LEUKOCYTE COUNT: 13.37 x10E3/uL
  LYMPHOCYTE: 81.33%
  MEAN CORPUSCULAR HEMOGLOBIN: 23.67 pg
  MEAN CORPUSCULAR HEMOGLOBIN CONCENTRATION: 37.87 G/DL
  MEAN CORPUSCULAR VOLUME: 62.53 fL
  MONOCYTE: 0%
  NEUTROPHIL: 17.33%
  NUCLEATED RED BLOOD CELLS: 0.33 /100WBC
  PLATELET COUNT: 1066.33 x10E3/uL
  ALANINE AMINOTRANSFERASE: 34 u/L
  ALBUMIN: 3.63 G/DL
  ALKALINE PHOSPHATASE: 197 u/L
  ASPARTATE AMINOTRANSFERASE: 117.33 u/L
  BLOOD UREA NITROGEN: 15 mg/dL
  CARBON DIOXIDE: 16 mmol/L
  CHLORIDE: 107.67 MEQ/L
  CHOLESTEROL: 65.67 mg/dL
  CREATINE PHOSPHOKINASE: 1121 u/L
  CREATININE: 0.19 mg/dL
  LIPASE: 14.33 u/L
  POTASSIUM: 7.12 MEQ/L
  TOTAL BILIRUBIN: 0.13 mg/dL
  TOTAL PROTEIN: 5.2 G/DL
[4]
  ABSOLUTE BASOPHIL: 0 CELLS/uL
  ABSOLUTE EOSINOPHIL: 0 CELLS/uL
  ABSOLUTE LYMPHOCYTE: 6405 CELLS/uL
  ABSOLUTE MONOCYTE: 112.67 CELLS/uL
  BASOPHIL: 0%
  EOSINOPHIL: 0%
  ERYTHROCYTE COUNT: 6.37 x10E6/uL
  HEMATOCRIT: 39.37%
  LEUKOCYTE COUNT: 8 x10E3/uL
  LYMPHOCYTE: 80%
  MEAN CORPUSCULAR HEMOGLOBIN: 24.77 pg
  MEAN CORPUSCULAR HEMOGLOBIN CONCENTRATION: 40.07 G/DL
  MEAN CORPUSCULAR VOLUME: 61.7 fL
  MONOCYTE: 1.33%
  NEUTROPHIL: 18.67%
  NUCLEATED RED BLOOD CELLS: 0 /100WBC
  PLATELET COUNT: 1071 x10E3/uL
  ALANINE AMINOTRANSFERASE: 55.67 u/L
  ALBUMIN: 3.17 G/DL
  ALKALINE PHOSPHATASE: 195.67 u/L
  ASPARTATE AMINOTRANSFERASE: 225.67 u/L
  BLOOD UREA NITROGEN: 13.33 mg/dL
  CARBON DIOXIDE: 20 mmol/L
  CHLORIDE: 113.33 MEQ/L
  CHOLESTEROL: 88 mg/dL
  CREATINE PHOSPHOKINASE: 1322.67 u/L
  CREATININE: 0.12 mg/dL
  LIPASE: 7.67 u/L
  POTASSIUM: 7 MEQ/L
  TOTAL BILIRUBIN: 0.2 mg/dL
  TOTAL PROTEIN: 4.47 G/DL
